Assay results from US12486246B2, “Replication protein A (RPA)-DNA interaction inhibitors” (THE TRUSTEES OF INDIANA UNIVERSITY, priority 2019, dated 2025).

How the values were obtained:
[1] = target: T1, full length heterotrimeric human RPA (Homo sapiens, UniProt P27694); assay: Electrophoretic mobility shift assay (EMSA), binding of full length human RPA to ssDNA; details: for IC50: full length human RPA binding to DNA, mean ± SD of minimum triplicate experiments
T1 construct: Full length, heterotrimeric human RPA (fl-RPA) and DBD-A/B constructs were expressed and purified; made in house
T1 sequence (P27694 whole entry): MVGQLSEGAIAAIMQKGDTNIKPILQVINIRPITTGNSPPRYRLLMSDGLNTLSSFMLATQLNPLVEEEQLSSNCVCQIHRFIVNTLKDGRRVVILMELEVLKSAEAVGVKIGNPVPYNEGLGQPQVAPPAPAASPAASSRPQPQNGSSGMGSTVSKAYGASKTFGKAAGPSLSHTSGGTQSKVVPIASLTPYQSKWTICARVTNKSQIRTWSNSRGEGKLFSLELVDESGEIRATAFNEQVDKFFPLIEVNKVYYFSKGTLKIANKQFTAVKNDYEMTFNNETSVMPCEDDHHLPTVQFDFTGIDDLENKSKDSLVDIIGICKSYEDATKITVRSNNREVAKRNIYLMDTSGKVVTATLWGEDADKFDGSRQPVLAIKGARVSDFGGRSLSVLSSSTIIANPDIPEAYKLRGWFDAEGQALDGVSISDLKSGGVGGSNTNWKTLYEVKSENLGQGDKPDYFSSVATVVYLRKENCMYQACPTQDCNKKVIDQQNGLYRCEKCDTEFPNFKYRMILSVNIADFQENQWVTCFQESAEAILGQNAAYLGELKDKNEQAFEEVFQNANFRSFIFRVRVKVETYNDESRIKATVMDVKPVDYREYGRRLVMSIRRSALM
T1 sequence (P15927 whole entry partner): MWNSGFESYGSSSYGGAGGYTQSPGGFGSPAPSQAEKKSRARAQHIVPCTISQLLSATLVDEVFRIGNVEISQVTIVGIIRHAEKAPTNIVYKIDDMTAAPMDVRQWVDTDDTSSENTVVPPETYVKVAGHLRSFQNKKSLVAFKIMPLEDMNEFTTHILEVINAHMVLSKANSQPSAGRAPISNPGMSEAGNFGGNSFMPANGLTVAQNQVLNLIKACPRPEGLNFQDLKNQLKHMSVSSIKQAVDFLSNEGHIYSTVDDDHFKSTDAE
T1 sequence (P35244 whole entry partner): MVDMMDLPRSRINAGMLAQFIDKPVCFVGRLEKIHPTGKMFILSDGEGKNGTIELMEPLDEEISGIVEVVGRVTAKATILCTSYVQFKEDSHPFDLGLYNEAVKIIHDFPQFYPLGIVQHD
Description: Full length, heterotrimeric human RPA (fl-RPA) and DBD-A/B constructs were expressed and purified according to previously described protocol. The DBD-A/B construct was expressed as a His6-RPA181-422 fusion protein. E. coli BL21 (DE3) cells in log growth were induced for 3 h with 0.5 mM IPTG at 37° C. The cells were lysed via sonication in buffer containing 20 mM Tris pH 7.5, 500 mM NaCl, 10 mM b-mercaptoethanol, supplemented with 25 μg/mL lysozyme, 1 μg/mL leupeptin, 1 μg/mL pepstatin and 0.5 mM PMSF. The lysate was applied to a 20 mL phosphocellulose column equilibrated in the same buffer and the flow-through material collected, brought to 5 mM Imidazole and loaded onto a 2 ml Ni-NTA column. The column was washed and proteins eluted on with a gradient from 50 mM to 500 mM imidazole. Fractions were assessed by EMSA and SDS-PAGE and DBD-A/B containing fraction were pool, dialyzed against buffer containing 50 mM HEPES pH 7.0, 500 mM NaCl and 1 mM DTT and stored at −80° C.
EMSAs were carried out using previously described procedure with the following modification. EMSA reactions (20 μL) were performed with 50 nM fl-RPA and 2.5 nM 5′ [^32P]-labeled 34-base DNA in buffer containing 20 mM HEPES (pH 7.8), 1 mM DTT, 0.001% NP-40, 50 mM NaCl. Chemical compounds were suspended in DMSO and DMSO concentration in the reaction mixture was kept constant at 2% or below 5%. RPA was incubated with inhibitor or DMSO control in reaction buffer for 30 min before the addition of DNA. Reactions were incubated for 5 min at room temperature and products separated via 6% native polyacrylamide gel electrophoresis. The bound and unbound fractions were then quantified by phosphor-imager analysis using ImageQuant software (Molecular Dynamics, CA) and IC50 values calculated by non-linear regression using SigmPlot (Sysat). For EMSA reactions with RPA DBD-A/B, 150 nM DBD-A/B was used, and electrophoresis was performed at 4° C. All other conditions were identical to those described for the full-length RPA.
Purified full length heterotrimeric human RPA protein was used to screen a series of analogs in an electrophoretic mobility shift assay (EMSA) measuring direct binding to a ss-DNA substrate. Quantification of the EMSA data and additional concentration dependent analysis to measure IC50 values of newly synthesized analogs provided potential insight into the structure-activity relationships (Table 1 and 2). […] Fluorine and trifluoromethyl substituents were included in pyridinyl compounds 28-29.

[2] = Aqueous solubility in unbuffered water; assay type: physicochemical; details: 43, 44, 45, 46, 47 vs 9, 16, 26, 28, 29 respectively
Description: Aqueous solubility was determined by suspending compound in un-buffered water with stirring. Insoluble material was removed by sedimentation or filtration and soluble compound quantified by absorbance spectroscopy and LC/MS. pH dependence was determined by suspending compound in 10 mM citrate buffer at pH 4.0 or 10 mM phosphate […] as described above in the description.
The morpholine ring is commonly introduced into solvent exposed regions as a privileged solubilizing group to improve solubility or pharmacokinetic properties including metabolic stability of a prospective drug scaffold which is exemplified by many FDA approved drugs. Modifications on Ring A had less of an effect than the morpholino modifications at the alkyl carboxylic acid side chain. To determine the effect of pH on solubility, we prepared solution at 1 mM in citrate buffer at pH 4, phosphate buffer at pH 7 and carbonate buffer at pH 9.5.

[3] = tested on: sonicated salmon sperm DNA; assay: Fluorescent intercalator displacement (FID) assay, SYBR-Green; assay type: binding; details: 25 mM MOPS pH 6.5
Description: The analysis of compound interactions with DNA was determined by inhibition of SYBR-Green intercalation into DNA as we have previously described. Briefly, reactions were performed in 25 mM MOPS (pH 6.5) containing sonicated salmon sperm DNA (8.29 ng/μL), SYBR-Green, and the indicated concentrations of RPA inhibitors. Reactions were conducted in black 96-well plates. Doxorubicin, a known noncovalent DNA binding chemotherapeutic, was used as a positive control. Fluorescence was measured using a BioTek® Synergy™ H1 hybrid multi-mode microplate reader with an excitation wavelength of 485 nm, emission wavelength of 528 nm, and a read height of 7 mm. Data were collected using BioTek® Gen5™ reader software. Reactions were incubated a maximum of 5 min before measurements were collected.
In order to probe the potential role of DNA intercalation as a mechanism for RPA inhibition, compounds 19, 23, 26, 27, 43 and 45 were analyzed using FID assay along with doxorubicin (Dox) as a positive control. […] In addition, direct binding of 9 derivatives to the target protein was assessed using a differential scan fluorimetry (DSF) assay. This assay assesses the melting profile of a protein at increasing temperatures via fluorescent dye binding. The direct interaction of a small molecule to the target protein can either increase or decrease the melting temperature (Tm) of the target depending on the specific protein and their interactions. […] Heparin sulfate, a known RPA interacting molecule often used in the purification of the protein was used as a control. […] (data not shown). […] (FIG. 1B).

Row | SMILES | IC50 [1] [µM] | also measured
1 | C=CC(=O)Oc1ccc(C2=NN(C(=O)CCCC(=O)O)C(c3cc4ccc(OCC)cc4nc3Cl)C2)cc1 (stereo not shown) [Compound 20, 5-(3-(4-(Acryloyloxy)phenyl)-5-(2-chloro-7-ethoxyquinolin-3-yl)-4,5-dihydro-1H-pyrazol-1-yl)-5-oxopentanoic acid] | 8.98 ± 0.98 | fold increase in potency/activity compared to compound 9 ([1]; full length RPA): 2 fold
2 | CCOc1ccc2cc(C3CC(c4ccc(I)cc4)=NN3C(=O)CCCCC(=O)O)c(Cl)nc2c1 (stereo not shown) [Compound 37, 6-(5-(2-Chloro-7-ethoxyquinolin-3-yl)-3-(4-iodophenyl)-4,5-dihydro-1H-pyrazol-1-yl)-6-oxohexanoic acid] | 6.86 ± 0.23 | 
3 | CCOc1ccc2cc(C3CC(c4ccc(I)cc4)=NN3c3cccc(C(=O)O)c3)c(Cl)nc2c1 (stereo not shown) [Compound 39, 3-(5-(2-Chloro-7-ethoxyquinolin-3-yl)-3-(4-iodophenyl)-4,5-dihydro-1H-pyrazol-1-yl)benzoic acid] | > 25 | 
4 | CCOc1ccc2cc(C3CC(c4ccc(I)cc4)=NN3C(=O)CCCCCC(=O)O)c(Cl)nc2c1 (stereo not shown) [Compound 38, 7-(5-(2-Chloro-7-ethoxyquinolin-3-yl)-3-(4-iodophenyl)-4,5-dihydro-1H-pyrazol-1-yl)-7-oxoheptanoic acid] | 9.93 ± 1.23 | 
5 | CCOC(=O)CCCC(=O)N1N=C(c2ccc(I)cc2)CC1c1cc2ccc(OCC)cc2nc1Cl (stereo not shown) [Compound 30, ethyl 5-(5-(2-chloro-7-ethoxyquinolin-3-yl)-3-(4-iodophenyl)-4,5-dihydro-1H-pyrazol-1-yl)-5-oxopentanoate] | > 25 | RPA inhibitory activity compared to compound 9 (in words) ([1]; full length RPA): decreased RPA inhibitory activity
6 | CCOc1ccc2cc(C3CC(c4ccc(I)cc4)=NN3C(=O)CCCC(=O)N3CCOCC3)c(Cl)nc2c1 (stereo not shown) [Compound 41, 1-(5-(2-Chloro-7-ethoxyquinolin-3-yl)-3-(4-iodophenyl)-4,5-dihydro-1H-pyrazol-1-yl)-5-morpholinopentane-1,5-dione] | 6.63 ± 0.48 | 
7 | COc1cccc2c1C(=O)c1c(O)c3c(c(O)c1C2=O)C[C@@](O)(C(=O)CO)C[C@@H]3O[C@H]1C[C@H](N)[C@H](O)[C@H](C)O1 [doxorubicin, reference compound] |  | DNA binding activity (displacement of SYBR-Green intercalator) [3]: concentration dependent reduction in fluorescence
8 | CCOc1ccc2cc(C3CC(c4ccc(I)cc4)=NN3C(=O)CCCC(=O)NCCN3CCOCC3)c(Cl)nc2c1 (stereo not shown) [Compound 42, 5-(5-(2-Chloro-7-ethoxyquinolin-3-yl)-3-(4-iodophenyl)-4,5-dihydro-1H-pyrazol-1-yl)-N-(2-morpholinoethyl)-5-oxopentanamide] | 10.5 ± 0.68 | 
9 | CCOc1ccc2cc(C3CC(c4ccc(Br)cc4)=NN3C(=O)CCCC(=O)NCCCN3CCOCC3)c(Cl)nc2c1 (stereo not shown) [Compound 44, 5-(3-(4-Bromophenyl)-5-(2-chloro-7-ethoxyquinolin-3-yl)-4,5-dihydro-1H-pyrazol-1-yl)-N-(3-morpholinopropyl)-5-oxopentanamide] | 10 ± 1.46 | aqueous solubility compared to carboxylic acid counterpart (in words) [2]: increased solubility
10 | CCOc1ccc2cc(C3CC(c4ccc(I)cc4)=NN3c3ccc(C(=O)O)cc3)c(Cl)nc2c1 (stereo not shown) [Compound 40, 4-(5-(2-Chloro-7-ethoxyquinolin-3-yl)-3-(4-iodophenyl)-4,5-dihydro-1H-pyrazol-1-yl)benzoic acid] | > 25 | 
11 | CCOc1ccc2cc(C3CC(c4ccc(OC(=O)N5CCOCC5)cc4)=NN3C(=O)CCCC(=O)O)c(Cl)nc2c1 (stereo not shown) [Compound 21, 5-(5-(2-Chloro-7-ethoxyquinolin-3-yl)-3-(4-((morpholine-4-carbonyl)oxy)phenyl)-4,5-dihydro-1H-pyrazol-1-yl)-5-oxopentanoic acid] | > 25 | RPA inhibitory activity compared to compound 9 (in words) ([1]; full length RPA): decreased RPA inhibition

Further lines, with some results ahead:

Row | IC50 [1] [µM] | SMILES | also measured
12 | 19.2 ± 4.17 | CCOc1ccc2cc(C3CC(c4ccc(Br)cc4)=NN3C(=O)CCCC(=O)O)c(Cl)nc2c1 (stereo not shown) [Compound 16, 5-(3-(4-Bromophenyl)-5-(2-chloro-7-ethoxyquinolin-3-yl)-4,5-dihydro-1H-pyrazol-1-yl)-5-oxopentanoic acid] | 
13 | 2.66 ± 0.6 | CCOc1ccc2cc(C3CC(c4ccc(-c5ccc(F)nc5)cc4)=NN3C(=O)CCCC(=O)O)c(Cl)nc2c1 (stereo not shown) [Compound 28, 5-(5-(2-Chloro-7-ethoxyquinolin-3-yl)-3-(4-(6-fluoropyridin-3-yl)phenyl)-4,5-dihydro-1H-pyrazol-1-yl)-5-oxopentanoic acid] | 
14 | 6.77 ± 0.64 | CCOc1ccc2cc(C3CC(c4ccc(-c5ccoc5)cc4)=NN3C(=O)CCCC(=O)O)c(Cl)nc2c1 (stereo not shown) [Compound 22, 5-(5-(2-chloro-7-ethoxyquinolin-3-yl)-3-(4-(furan-3-yl)phenyl)-4,5-dihydro-1H-pyrazol-1-yl)-5-oxopentanoic acid] | 
15 | 5.85 ± 0.39 | CCOc1ccc2cc(C3CC(c4ccc(-c5ccc(C(F)(F)F)nc5)cc4)=NN3C(=O)CCCC(=O)NCCCN3CCOCC3)c(Cl)nc2c1 (stereo not shown) [Compound 47, 5-(5-(2-Chloro-7-ethoxyquinolin-3-yl)-3-(4-(6-(trifluoromethyl)pyridin-3-yl)phenyl)-4,5-dihydro-1H-pyrazol-1-yl)-N-(3-morpholinopropyl)-5-oxopentanamide] | aqueous solubility compared to carboxylic acid counterpart (in words) [2]: increased solubility
16 | 2.34 ± 0.22 | CCOc1ccc2cc(C3CC(c4ccc(N)cc4)=NN3C(=O)CCCC(=O)O)c(Cl)nc2c1 (stereo not shown) [Compound 19, 5-(3-(4-Aminophenyl)-5-(2-chloro-7-ethoxyquinolin-3-yl)-4,5-dihydro-1H-pyrazol-1-yl)-5-oxopentanoic acid] | DNA binding activity (displacement of SYBR-Green intercalator) [3]: No significant DNA binding activity
17 | > 25 | CCOc1ccc2cc(C3CC(c4ccc([N+](=O)[O-])cc4)=NN3C(=O)CCCC(=O)O)c(Cl)nc2c1 (stereo not shown) [Compound 18, 5-(5-(2-Chloro-7-ethoxyquinolin-3-yl)-3-(4-nitrophenyl)-4,5-dihydro-1H-pyrazol-1-yl)-5-oxopentanoic acid] | 
18 | 4.35 ± 0.42 | CCOc1ccc2cc(C3CC(c4ccc(-c5ccc(C(F)(F)F)nc5)cc4)=NN3C(=O)CCCC(=O)O)c(Cl)nc2c1 (stereo not shown) [Compound 29, 5-(5-(2-Chloro-7-ethoxyquinolin-3-yl)-3-(4-(6-(trifluoromethyl)pyridin-3-yl)phenyl)-4,5-dihydro-1H-pyrazol-1-yl)-5-oxopentanoic acid] | 
19 | > 25 | CCOc1ccc2cc(C3CC(c4ccc(O)cc4)=NN3C(=O)CCCC(=O)O)c(Cl)nc2c1 (stereo not shown) [Compound 17, 5-(5-(2-Chloro-7-ethoxyquinolin-3-yl)-3-(4-hydroxyphenyl)-4,5-dihydro-1H-pyrazol-1-yl)-5-oxopentanoic acid] | 
